Where only a bound is given, the exact number is not on record here.

For data set [1], the system named is RAW264.7. As to the kind of experiment: Antiinflammatory activity against mouse RAW264.7 cells assessed as inhibition of NO release. Type of data set: functional, cell-based.
The subject of data set [2] is RAW264.7. Nature of the data set: Antiinflammatory activity against LPS-stimulated mouse RAW264.7 cells assessed as NO emission at 50 uM (reference value: 20.56 +/-0.06%). Type of data set: functional.
Data set [3] can be described thus: Cytotoxicity against mouse RAW264.7 cells assessed as cell survival rate at 50 uM by MTT assay relative to control. The conditions noted are these: read-out: Activity. Type of data set: toxicity, cell-based. (In general: Tetrazolium assays rely on reduction of a dye to a coloured formazan, in cell work by metabolically active cells.)
The subject of data set [4] is RAW264.7. Nature of the data set: Antiinflammatory activity against mouse RAW264.7 cells assessed as inhibition of NO production at 50 uM relative to control. Type of data set: functional.
In data set [5] the test system is RAW264.7. Nature of the data set: Antiinflammatory activity against LPS-stimulated mouse RAW264.7 cells assessed as reduction in iNOS protein expression by Western blot analysis. Type of data set: functional, cell-based. The conditions noted are these: dose 5-20 µM. For orientation: In western blotting, separated proteins are transferred to a membrane and probed.

In data set [6] the target is Transcription factor p65 (Mus musculus) (UniProt Q04207). As to the kind of experiment: Inhibition of p65 phosphorylation in LPS-stimulated mouse RAW264.7 cells by Western blot analysis. Type of data set: cell-based. The conditions noted are these: dose 5-20 µM.
Transcription factor p65 (Mus musculus), sequence (Q04207 whole entry): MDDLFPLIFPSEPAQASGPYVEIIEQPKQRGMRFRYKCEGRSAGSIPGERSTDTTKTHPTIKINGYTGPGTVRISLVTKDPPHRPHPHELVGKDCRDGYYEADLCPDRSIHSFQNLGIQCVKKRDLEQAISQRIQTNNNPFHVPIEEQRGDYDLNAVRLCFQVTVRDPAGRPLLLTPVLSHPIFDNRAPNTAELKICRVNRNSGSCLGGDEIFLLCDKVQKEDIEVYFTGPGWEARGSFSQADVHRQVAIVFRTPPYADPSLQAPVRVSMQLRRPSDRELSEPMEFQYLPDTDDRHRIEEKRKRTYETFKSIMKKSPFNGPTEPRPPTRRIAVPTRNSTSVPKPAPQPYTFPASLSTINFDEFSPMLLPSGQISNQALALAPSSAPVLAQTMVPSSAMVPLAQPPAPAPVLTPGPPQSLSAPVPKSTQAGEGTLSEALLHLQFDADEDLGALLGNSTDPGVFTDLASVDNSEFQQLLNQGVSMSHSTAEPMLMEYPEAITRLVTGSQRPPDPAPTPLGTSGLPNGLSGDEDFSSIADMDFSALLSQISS
Data set [7] can be described thus: Cytotoxicity against mouse RAW264.7 cells assessed as cell survival rate at 20 uM by MTT assay relative to control. Type of data set: toxicity, cell-based. The following applies: read-out: Activity.
Data set [8] has as its system RAW264.7. Nature of the data set: Antiinflammatory activity against LPS-stimulated mouse RAW264.7 cells assessed as NO emission at 20 uM (reference value: 20.56 +/-0.06%). It is filed as functional.
Data set [9] concerns RAW264.7. As to the kind of experiment: Antiinflammatory activity against mouse RAW264.7 cells assessed as inhibition of NO production at 20 uM relative to control. Type of data set: functional.
The nature of data set [10]: Cytotoxicity against mouse RAW264.7 cells assessed as reduction in cell survival by MTT assay. It is filed as toxicity, cell-based.
Data set [11] deals with RAW264.7. As to the kind of experiment: Antiinflammatory activity against LPS-stimulated mouse RAW264.7 cells assessed as reduction in beta-catenin protein expression by Western blot analysis. It is filed as functional, cell-based. The following applies: dose 5-20 µM.

On to `COc1cc(CCc2cccnc2)cc(OC)c1`, for which the 50% inhibitory concentration (IC50) (as a rule, the point on the concentration scale where inhibition reaches its midpoint) in the data set on RAW264.7 [1] was above 50 µM. Besides, in the data set with RAW264.7 [2], the Activity was 17.72 µM. The viability at 50 µM in data set [3] came out at 97.8%. Also, the inhibition – broadly, the relative decrease from the control value, in per cent – at 50 µM in the data set with RAW264.7 [4] came to 13.8%.
The corresponding values for `COc1cc(CCc2ccc(C(C)(C)C)cc2)cc(OC)c1` are above 50 µM, 17.5 µM, 106% and 14.9%.
Turning to `COc1cc(CCc2cccc(C(F)(F)F)c2)cc(OC)c1`, in the data set on RAW264.7 [1], the IC50 is above 50 µM. In the data set on RAW264.7 [2], the Activity is 16.54 µM. In addition, the viability at 50 µM in data set [3] amounted to 103%. The inhibition at 50 µM with RAW264.7 [4] came to 19.6%.
Consider `O=[N+]([O-])c1cccc(/C=C/c2cc(O)cc(O)c2)c1`, for which the IC50 in the data set with RAW264.7 [1] amounted to 44.5 µM. In the data set on RAW264.7 [2], the Activity was 15.32 µM. In addition, in data set [3], the viability at 50 µM is 104%. Moreover, the inhibition at 50 µM in the data set with RAW264.7 [4] stood at 25.5%.
The corresponding values for `COc1cc(CCc2cccc(C#N)c2)cc(OC)c1` are above 50 µM, 21.8 µM, 105% and -5.99%.
Taken in the same sequence, the figures for `COc1cc(/C=C/c2cccc(C#N)c2)cc(OC)c1` were above 50 µM, 18.22 µM, 114% and 11.4%.
Taken in the same sequence, the figures for `COc1cc(CCc2cccc(N)c2)cc(OC)c1` were 55.4 µM, 15.2 µM, 104% and 26.1%.
For the molecule `COc1cc(/C=C/c2cc(C(C)(C)C)cc(C(C)(C)C)c2)cc(OC)c1`, the half-inhibitory concentration (IC50) in the data set on RAW264.7 [1] is above 50 µM. Also, the Activity in the data set with RAW264.7 [2] stood at 17.02 µM. Besides, the viability at 50 µM in data set [3] is 104%. Besides, in the data set with RAW264.7 [4], the inhibition at 50 µM worked out at 17.2%.
The corresponding values for `Oc1cc(O)cc(CCc2ccccc2)c1` [DIHYDROPINOSYLVIN] are above 50 µM, 16.86 µM, 102% and 18%.
The corresponding values for `COc1cc(/C=C/c2cccc(Cl)c2)cc(OC)c1` are above 50 µM, 18.96 µM, 97.8% and 7.82%.
For the molecule `COc1cccc(/C=C/c2cc(OC)cc(OC)c2)c1`, in the data set on RAW264.7 [1], the IC50 is above 50 µM. Moreover, the Activity in the data set on RAW264.7 [2] is 16.82 µM. Also, in data set [3], the viability at 50 µM amounted to 97.2%. The inhibition at 50 µM in the data set on RAW264.7 [4] was determined as 18.2%.
Taken in the same sequence, the figures for `COc1cc(/C=C/c2ccc(C(C)(C)C)cc2)cc(OC)c1` were above 50 µM, 17.68 µM, 99.3% and 14%.
Taken in the same sequence, the figures for `Oc1cc(O)cc(CCc2cccnc2)c1` were above 50 µM, 18.06 µM, 98.9% and 12.2%.
The corresponding values for `COc1cc(/C=C/c2cccc([N+](=O)[O-])c2)cc(OC)c1` are above 50 µM, 17.5 µM, 104% and 14.9%.
Turning to `COc1cc(CCc2cc(C(C)(C)C)cc(C(C)(C)C)c2)cc(OC)c1`, the IC50 in the data set on RAW264.7 [1] is above 50 µM. In addition, in the data set with RAW264.7 [2], the Activity was found to be 16.82 µM. In data set [3], the viability at 50 µM stood at 114%. For the same molecule, the inhibition at 50 µM in the data set with RAW264.7 [4] was found to be 18.2%.
`COc1cc(CCc2cccc(C)c2)cc(OC)c1`: the IC50 in the data set with RAW264.7 [1] amounted to 58.3 µM. The Activity in the data set on RAW264.7 [2] was found to be 16.28 µM. Also, in data set [3], the viability at 50 µM was determined as 109%. In addition, the inhibition at 50 µM with RAW264.7 [4] was 20.9%.
Taken in the same sequence, the figures for `Oc1cccc(CCc2cc(O)cc(O)c2)c1` were 48.2 µM, 14.12 µM, 110% and 31.4%.
The corresponding values for `COc1cc(/C=C/c2cccnc2)cc(OC)c1` are above 50 µM, 15.94 µM, 97.7% and 22.5%.
The corresponding values for `COc1cc(O)cc(CCc2cccc(O)c2)c1` [BATATASIN III] are above 50 µM, 16.14 µM, 106% and 21.5%.
Consider `CC(C)(C)c1ccc(CCc2cc(O)cc(O)c2)cc1`, for which the IC50 in the data set with RAW264.7 [1] was 23.7 µM. Besides, the Activity in the data set on RAW264.7 [2] stood at 9.74 µM. Besides, in data set [3], the viability at 50 µM came out at 106%. Moreover, the inhibition at 50 µM in the data set with RAW264.7 [4] worked out at 52.6%.
The corresponding values for `C[C@@H]1C[C@H]2[C@@H]3CCC4=CC(=O)C=C[C@]4(C)[C@@]3(F)[C@@H](O)C[C@]2(C)[C@@]1(O)C(=O)CO` [DEXAMETHASONE] are above 50 µM, 15.05 µM, 107% and 26.9%.
Taken in the same sequence, the figures for `COc1cc(CCc2ccco2)cc(OC)c1` were above 50 µM, 21.18 µM, 103% and -2.98%.
Taken in the same sequence, the figures for `Oc1cccc(/C=C/c2cc(O)cc(O)c2)c1` were 54 µM, 15.88 µM, 110% and 22.8%.
For `COc1cc(CCc2ccccc2)cc(OC)c1`, the IC50 with RAW264.7 [1] was above 50 µM. Moreover, in the data set on RAW264.7 [2], the Activity was 19.3 µM. In addition, in [3], the viability at 50 µM was found to be 99.5%. Moreover, in the data set with RAW264.7 [4], the inhibition at 50 µM turned out to be 6.16%.
Taken in the same sequence, the figures for `COc1cc(/C=C/c2cccc(C(F)(F)F)c2)cc(OC)c1` were above 50 µM, 17.66 µM, 109% and 14.1%.
As to `CC(C)(C)c1cc(CCc2cc(O)cc(O)c2)cc(C(C)(C)C)c1`, in the data set with RAW264.7 [1], the concentration for half-maximal inhibition (IC50) turned out to be 13 µM. In addition, the Activity result was “Dose-Dependent Effect” in the data set with RAW264.7 [5], 10.08 µM in the data set with RAW264.7 [8] and “Dose-Dependent Effect” with RAW264.7 [11]. Also, the inhibition result in data set [6] is “Dose-Dependent Effect”. The viability at 20 µM in data set [7] is 99.1%. Moreover, the inhibition at 20 µM in the data set with RAW264.7 [9] worked out at 51%. For the same molecule, in [10], the CC50 (usually the concentration that lowers cell viability or growth by half) turned out to be 34.3 µM.

For the origin of these results see ChEMBL document CHEMBL5329182, “Design, Synthesis, anti-inflammatory activity Evaluation, preliminary exploration of the Mechanism, molecule Docking, and structure-activity relationship analysis of batatasin III analogs” (Bioorg Med Chem Lett, 2023).
